Read-outs that look alike come from different tables or passages of the source.
Legend:
[1] = Acute toxicity, oral, mice (LD50); conditions: in vivo, mouse, mortality at 72 hours, P = presumption
Procedure: a. DS male mice (20-25 g) are orally administered a suspension of test compound with gum arabic. The mortality at 72 hours is determined and the LD50 is calculated.

[2] = test system: DS male mice; assay: Analgesic activity a: acetic acid writhing method; assay type: in vivo, mouse; conditions: read-out: Analgesic Activity a ED50
Procedure: a. Acetic acid writing method
DS male mice (20-23 g) are treated with an intraperitoneal injection of 0.1 ml/10 g of 0.6% acetic acid 30 minutes after oral administration of a test compound. The number of times of writhing for 10 minutes is counted and ED50 is calculated.

[3] = test system: SLC-Wistar female rats; assay: Analgesic activity b: foot-licking method; assay type: in vivo, rat; conditions: read-out: Analgesic Activity b ED50
[4] = test system: SLC-Wistar female rats; assay: Analgesic activity c: Randall and Selitto method; assay type: in vivo, rat; conditions: 2 h, read-out: Analgesic Activity c ED50
Procedure: c. Randall and Selitto method A test compound is orally given SLC-Wistar female rats (150-170 g). Five minutes later 0.1 ml of 20% yeast suspension is subcutaneously injected into the plantar tissue of the foot.

[5] = test system: JCL-Wistar female rats; assay: Anti-inflammatory activity: carrageenin foot edema; assay type: in vivo; conditions: rat, oral, 50 mg/kg, 1.0% carrageenin, swelling 3 hours later
Procedure: A 0.9% saline solution (0.05 ml) containing 1.0% carrageenin is used as phlogistic agent. After 30 minutes JCL-Wistar female rats (180-200 g) are orally administered a test compound, the phlogistic agent is injected subcutaneously into the plantar of the foots of the rats. The volume of swelling is measured 3 hours later and anti-edema activity is determined by calculating the percentage ratio of the edematous volume of medicated foot of that of non-medicated foot.

[6] = Acute toxicity, oral, rats (LD50); conditions: in vivo, rat, mortality on the 15th day
Procedure: b. JCL-Wistar female rats (180-220 g) are orally administered a suspension of test compound with gum arabic. The mortality on the 15th day is determined and the LD50 is calculated.

[7] = mouse, oral, 30 min before 0.6% acetic acid i.p., writhing counted for 10 minutes
[8] = rat, oral, 30 min before 3.7% formaldehyde s.c. in hind-paw, foot-licking for 50 minutes
[9] = rat, oral, 5 min before 20% yeast s.c. in foot, pain threshold at 120 minutes

Compound	LD50 at 72 h [1] [mg/kg]	ED50 [2, 7] [mg/kg]	ED50 [3, 8] [mg/kg]	ED50 [4, 9] [mg/kg]	Anti-inflammatory Activity [5] [%]	LD50 at 360 h [6] [mg/kg]	ED50 ([2]; Mus musculus, po) [mg/kg]	ED50 ([3]; Rattus norvegicus, po) [mg/kg]	ED50 ([4]; po) [mg/kg]
CC(=O)n1c2c(c3ccccc31)C(CN(C)C)CCS2 (stereo not shown) [Comp. 4]	~175	21	4.7	15.9	44				
CNCC1CCS(=O)(=O)c2[nH]c3ccccc3c21 (stereo not shown) [Comp. 3, 4-Methylaminomethyl-2,3,4,9-tetrahydrothiopyrano[2,3-b]indole S-dioxide]	~750	11.7	2.9	19.1	25				
CNCC1CCSc2[nH]c3ccccc3c21 (stereo not shown) [Comp. 1, 4-Methylaminomethyl-2,3,4,9-tetrahydrothiopyrano[2,3-b]indole]	409	4.2	1.6	8.4	66	295			
CNCC1CCSc2c1c1ccccc1n2C (stereo not shown) [Comp. 2, 9-Methyl-4-methylaminomethyl-2,3,4,9-tetrahydrothiopyrano[2,3-b]indole]	~750	21.2	0.54	17.8	40				
COc1cc(C)nc(-n2nc(C)cc2OC)n1 [Mepirizole, reference compound]	1150	110	13	130		552			
COc1ccc2c(c1)c(CC(=O)O)c(C)n2C(=O)c1ccc(Cl)cc1 [Idomethacin, reference compound]	17					14	7	65	14
